The source of these data is patent publication US8383130B2, “Partial peptide of lacritin” (Senju Pharmaceutical Co., Ltd., priority 2008, dated 2013).

Assay type in all cases: cell-based
Assay [1] has as its system human corneal epithelial cells (HCE-T). The experiment in a line: Adhesion of human corneal epithelial cell to extracellular matrix (Experimental Example 2). The note with it: polypeptide 10 μM in PBS, 50 μL per well, collagen type IV coated plate, 37° C. 25 min, MTT assay, no addition of polypeptide = 100%. On the procedure:
(§1) An extracellular matrix solution (10 μg/mL, collagen type IV: Becton, Dickinson and Company) was added to a 96 well plate (Iwaki Glass Company, Limited). The solution was incubated at 37° C. for 1 hr to coat the plate with the extracellular matrix. After the redundant extracellular matrix solution was removed, 0.1% BSA solution (Sigma-Aldrich Co.) was added to block the region not coated with the extracellular matrix. Successively, the BSA solution was removed and the plate was washed three times with PBS, and polypeptides 4, 6 and 7 synthesized in Example 2 and Comparative Example 1 were suspended in PBS to a final concentration of 10 μM, and the suspension was added by 50 μL per well. Furthermore, established human corneal epithelial cells (HCE-T: can be prepared by the method described in Invest Ophthalmol Vis Sci. 1995, 36, 614) were cultured overnight under serum-free conditions and added to the plate at 2×10^4 cells/100 μL DMEM/F12 medium/well. The plate was incubated at 37° C. for 25 min to allow adhesion of the cells to the well. The number of the adhered cells was counted by MTT assay (DOJINDO LABORATORIES).

Assay [2] shares this test system. The experiment in a line: Adhesion of human corneal epithelial cell to extracellular matrix (Experimental Example 1). To be noted: polypeptide 100 μg/mL, 50 μL per well, collagen type IV coated plate, 37° C. 20 min, MTT assay, no addition of polypeptide = 100%. On the procedure:
as §1, with “washed twice” for “washed three times”, “polypeptides 1-5 (concentration 100 μg/mL)” for “polypeptides 4, 6 and 7”, “Example 1” for “Example 2”, “were” for “were suspended in PBS to a final concentration of 10 μM, and the suspension was”, “for 20” for “for 25”, “the plate.” for “the well.”

In assay [3] the test system is monkey lacrimal gland acinar cells. The assay can be described thus: Secretion of tear protein (lactoferrin) from monkey lacrimal gland acinar cells. The note with it: 1 μM polypeptide; for lactoferrin secretion amount (ng/10^5 cells): 37° C. 10 min, westernblot, human lactoferrin as standard. Here is the method:
Monkey lacrimal gland was chopped in a DMEM/F12 medium (Invitrogen Corporation) and treated with HBSS (Invitrogen Corporation) containing 0.76 mg/mL EDTA (Sigma-Aldrich Co.) and DMEM/F12 medium containing 200 U/mL collagenase A (Roche), 698 U/mL Hyarulonidase (Worthington Biochemical Corporation) and 10 U/mL DNase (Roche Diagnostics K.K.), and the cells were isolated. 1×10^6 cells were sown on a 6 well plate (ASAHI GLASS CO., LTD.) coated with 0.01 mg/cm^2 Collagen I (Becton, Dickinson and Company), and cultured in a CO2 incubator at 37° C. overnight. The next day, the medium was changed to a supplement-free DMEM/F12 medium and the cells were pre-incubated at 37° C. for 30 min, and then incubated in a DMEM/F12 medium containing 1 μM polypeptide 1 or 4 at 37° C. for 10 min. Lactoferrin as a tear protein secreted in the medium was detected by westernblot, and quantified using human lactoferrin (Sigma-Aldrich Co.) as the standard. The collected medium was purified by 2D clean up kit (Bio-Rad Laboratories, Inc.), dissolved in NuPAGE LDS sample buffer (Invitrogen Corporation), and thermally denatured at 70° C. for 10 min. An equivalent amount of a sample was electrophoresed in 4-12% NuPAGE Bis Tris gel in MES buffer (Invitrogen Corporation) at 200 V for 35 min, and blotted on a PVDF membrane (Nihon Millipore K.K.) at 100 V for 60 min using Trans Blot Mini Cell (Bio-Rad Laboratories, Inc.). The membrane was blocked with TTBS (Bio-Rad Laboratories, Inc.) containing 5% skim-milk (Bio-Rad Laboratories, Inc.) at room temperature for 30 min, and reacted overnight at 4° C. with lactoferrin antibody (manufactured in rabbit, Sigma-Aldrich Co.) diluted 1000-fold. After washing the membrane with TTBS, the membrane was reacted at room temperature for 60 min with secondary antibody of anti-rabbit HRP, which was diluted 5000-fold. Then detection using ECL plus (GE healthcare) was performed. In addition, the amount of the secreted lactoferrin was quantified by forming an analytical curve of human lactoferrin on the same membrane, and comparing the density of the bands.

With “EISGPAEPASPPETTTTAQETSAAAVQGTAKVT (listed as Homo sapiens) [polypeptide 4, reference compound]”, the “cell adhesion rate (%)” value in assay [1] is 107%; in assay [2], 100%. Further, the “lactoferrin secretion amount (ng/10^5 cells)” value in assay [3] is reported as 2.79 ng/10^5 cells. On to “EISGPAEPASPPETTTTAQETSAAAVQGTAKVTSSRQELNPLKSIVEKSILLTEQALAKA (listed as Homo sapiens) [polypeptide 7]”, for which, in assay [1], the “cell adhesion rate (%)” value was determined as 190%.

Take “QGTAKVTSSRQELNPL (listed as Homo sapiens) [polypeptide 5, reference compound]”: in assay [2], the “cell adhesion rate (%)” value is 98%.

With “QGTAKVTSSRQELNPLKSIVEKSILLTEQALAKA (listed as Homo sapiens) [polypeptide 6]”, the “cell adhesion rate (%)” value in assay [1] worked out at 160%.

Consider “QGTAKVTSSRQELNPLKSIVEKSILLTEQALAKAGKGMHGGVPGG (listed as Homo sapiens) [polypeptide 2]”, for which, in assay [2], the “cell adhesion rate (%)” value was 134%. Same read-out and setting: under “QGTAKVTSSRQELNPLKSIVEKSILLTEQALAKAGKGMHGGVPGGKQFIENGSEF (listed as Homo sapiens) [polypeptide 3]” stands 147%. As for “VQGTAKVTSSRQELNPLKSIVEKSILLTEQALAKA (listed as Homo sapiens) [polypeptide 1]”, the “cell adhesion rate (%)” value in assay [2] was 147%. Moreover, the “lactoferrin secretion amount (ng/10^5 cells)” value in assay [3] was determined as 11.7 ng/10^5 cells. Further, the “promotion of secretion of lactoferrin (in words)” value in assay [3] (10 min) is “promoted the secretion of lactoferrin”.
